Results from patent publication EP0705603A1, “Use of non-toxic cysteine sulfoxide derivatives in the treatment of cancer or for enhancing the T-cell count” (priority 1994, dated 1996).

Test: Toxicity after intravenous administration to patients
Type: in vivo, patient
Description: Aqueous solutions of t-butyl hydroperoxide are prepared by dissolving 50 ml of a 70% aqueous solution of t-butyl hydroperoxide in 1 litre of normal (0.9%) saline. 15-30 ml of this solution is given intravenously over a period of up to about 15 minutes.
Aqueous solutions of methyl, ethyl, propyl and butyl cysteine sulfoxide are prepared by dissolving 100 gram of the respective sulfoxide in 1 litre of normal (0.9%) saline. 30-60 ml of this solution (delivering an approximate […] dose of the sulfoxide) is given intravenously.
An aqueous solution of L-cystine is prepared by first dissolving 80 grams of N-methyl-D-glucamine in 1 litre of normal (0.9%) saline and the dissolving in 40 g of L-cystine. 50 to 60 ml of the solution (delivering an approximately 2 g dose of cystine) is given intravenously.
An aqueous solution of oxidised glutathione is prepared by dissolving 40 grams in 1 litre of normal (0.9%) saline. 50-60 ml of this solution (delivering an approximately 2 g dose of oxidised glutathione) is given intravenously.
The t-butyl hydroperoxide solution is administered by intravenous infusion over a period of up to about 15 minutes. This is then followed immediately by intravenous infusion of the sulfoxide, optionally with cystine and/or oxidised glutathione solutions, and then (within three minutes) Ultra High Frequency microwave radiation is commenced and is delivered over the next 20 - 30 minutes. 1 or 2 rest intervals of 2 to 3 minutes each are permitted during this application. Three such treatment sessions may be undertaken per day.
No immediate or late changes in blood pressure, renal or liver function, electrolytes or haematology have been seen from the method.

Compound	symptoms suggestive of any toxicity (human, in vivo, iv)	other results
N[C@@H](CSSC[C@H](N)C(=O)O)C(=O)O [L-cystine]	No symptoms suggestive of any toxicity	NOAEL (human, in vivo, iv): > 100 mg/kg
C=CC[S+]([O-])CC(N)C(=O)O (stereo not drawn) [allyl cysteine sulfoxide]	No symptoms suggestive of any toxicity	
CCCC[S+]([O-])CC(N)C(=O)O (stereo not drawn) [butyl cysteine sulfoxide]	No symptoms suggestive of any toxicity	
CC[S+]([O-])CC(N)C(=O)O (stereo not drawn) [ethyl cysteine sulfoxide]	No symptoms suggestive of any toxicity	
C[S+]([O-])CC(N)C(=O)O (stereo not drawn) [methyl cysteine sulfoxide]	No symptoms suggestive of any toxicity	
CCC[S+]([O-])CC(N)C(=O)O (stereo not drawn) [propyl cysteine sulfoxide]	No symptoms suggestive of any toxicity	
CC(C)(C)OO [t-butyl hydroperoxide]		volume of saline solution of oxidising agent that can safely and effectively be administered (70% t-butyl hydroperoxide in water diluted in normal (0.9%) saline, intravenous, over about 5 minutes): 60 mL; symptoms suggestive of any toxicity (after the intravenous administration): No symptoms suggestive of any toxicity
